# Tests used:
# PLK4 (h) = target: T1, PLK4 (h) (Homo sapiens, UniProt O00444); assay: PLK-4 human kinase scintillation proximity assay (SPA); assay type: biochemical; settings: 1 μM ATP, 60 minutes at r.t., read-out: PLK4 pIC50 (converted)
# T1 sequence (O00444 1-970): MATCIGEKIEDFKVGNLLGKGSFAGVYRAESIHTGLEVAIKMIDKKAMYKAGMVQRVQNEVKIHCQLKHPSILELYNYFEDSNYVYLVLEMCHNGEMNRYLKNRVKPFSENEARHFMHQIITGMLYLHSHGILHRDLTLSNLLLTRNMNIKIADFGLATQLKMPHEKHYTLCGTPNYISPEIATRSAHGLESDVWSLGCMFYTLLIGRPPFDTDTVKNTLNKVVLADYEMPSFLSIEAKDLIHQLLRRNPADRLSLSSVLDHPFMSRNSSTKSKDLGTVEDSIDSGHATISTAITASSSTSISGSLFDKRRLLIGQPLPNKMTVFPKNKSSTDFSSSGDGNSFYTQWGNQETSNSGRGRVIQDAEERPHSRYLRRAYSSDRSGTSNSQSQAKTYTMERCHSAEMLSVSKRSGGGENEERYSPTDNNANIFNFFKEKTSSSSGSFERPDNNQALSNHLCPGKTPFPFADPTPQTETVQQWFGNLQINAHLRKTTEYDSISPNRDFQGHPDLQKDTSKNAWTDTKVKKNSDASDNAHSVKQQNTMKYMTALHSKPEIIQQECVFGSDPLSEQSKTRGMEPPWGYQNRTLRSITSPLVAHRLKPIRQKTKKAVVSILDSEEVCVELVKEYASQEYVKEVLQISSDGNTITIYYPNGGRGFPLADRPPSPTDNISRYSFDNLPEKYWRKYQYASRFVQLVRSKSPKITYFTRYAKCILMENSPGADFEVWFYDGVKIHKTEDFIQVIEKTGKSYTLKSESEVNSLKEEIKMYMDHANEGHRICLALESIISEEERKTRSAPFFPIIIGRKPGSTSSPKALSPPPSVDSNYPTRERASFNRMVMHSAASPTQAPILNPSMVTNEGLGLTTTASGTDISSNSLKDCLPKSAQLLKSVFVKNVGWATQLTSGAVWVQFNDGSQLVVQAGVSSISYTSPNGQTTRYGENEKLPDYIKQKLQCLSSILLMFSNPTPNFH
# Summary of the method: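 Human PLK4 (19 μg/ml) reacted with 10 μM biotinylated peptide, 1 μM ATP plus 2 nM [γ-33P]ATP in HEPES pH 8.0 with MgCl2, NaCl, NaF and DTT for 60 min at r.t. After an EDTA stop, phosphorylated substrate was captured on streptavidin PVT SPA beads and scintillation imaged.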
# HCT-116 = assay: Cellular proliferation assay (Alamar blue), HCT-116; assay type: cell-based; settings: Homo sapiens; HCT-116 cells; 10% FCS; 72 h with compound; Alamar blue 4 h; read-out: pIC50 HCT-116 (converted)
# Summary of the method: (§1)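 Cells in 10% FCS (37° C., 5% CO2) were seeded 24 hours before a 72-hour compound exposure. Viable cells were measured by Alamar blue fluorescence (544 nm/590 nm) after dye incubation of 4 h (HCT-116), 6 h (U87-MG) or 24 h (PC3, A2780). Effect is relative to control cells.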
# H1299 = assay: Cellular proliferation assay (Alamar blue), H1299; assay type: cell-based; settings: Homo sapiens, NCI-H1299, H1299 cells; 10% FCS; 72 h with compound; Alamar blue 4 h; read-out: pIC50 H1299 (converted)
# Summary of the method: (§2)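 Viable cell number is determined by Alamar blue conversion after cells are treated with compound for 72 hours, following 24 hours of growth without compound in 10% FCS. The effect is calculated against control cells.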
# U87-MG = assay: Cellular proliferation assay (Alamar blue), U87-MG; assay type: cell-based; settings: Homo sapiens, U-87 MG; U87-MG cells; 10% FCS; 72 h with compound; Alamar blue 6 h; read-out: pIC50 U87MG (converted)
# Protocol: Cellular proliferation of these compounds was tested on a panel of different cell lines in the presence of 10% FCS serum (37° C. and 5% (v/v) CO2). In a first step these cells were seeded and incubated for 24 hours in the absence of compound. In the second step the cells were incubated for 72 hours with the compounds to be tested for 72 hours. The viable cell number was finally assessed in a standard Alamar blue cell viability assay.
# The viable cell number was assessed by incubation for either 4 h (HCT-116, H1299) 6 h (U87-MG) or 24 h (A2780, PC3, MDA-MB-231) with Alamar blue (Resazurin 9 μg/ml, K-Ferrocyanide 90 μM, K-Ferricyanide 90 μM) and the converted fluorescent product was quantified on a fluorescent plate readed (544 nm/590 nm). Effect of the compounds is calculated as of on control cells.
# A2780 = assay: Cellular proliferation assay (Alamar blue), A2780; assay type: cell-based; settings: Homo sapiens, A2780, A2780 cells; 10% FCS; 72 h with compound; Alamar blue 24 h; read-out: pIC50 A2780 (converted)
# Summary of the method: as §1
# PC3 = assay: Cellular proliferation assay (Alamar blue), PC3; assay type: cell-based; settings: Homo sapiens, PC-3, PC-3 cells; 10% FCS; 72 h with compound; Alamar blue 24 h; read-out: pIC50 PC-3 (converted)
# Summary of the method: as §1
# MDA-MB-231 = assay: Cellular proliferation assay (Alamar blue), MDA-MB-231; assay type: cell-based; settings: Homo sapiens, MDA-MB-231, MDA-MB-231 cells; 10% FCS; 72 h with compound; Alamar blue 24 h; read-out: pIC50 MDA/MB231 (converted)
# Summary of the method: as §2
SMILES,IC50 (PLK4 (h)) [µM],IC50 (HCT-116) [µM],IC50 (H1299) [µM],IC50 (U87-MG) [µM],IC50 (A2780) [µM],IC50 (PC3) [µM],IC50 (MDA-MB-231) [µM]
COCCN(CCOc1ccc2cc1OCC(=O)N(C)CCCN(C)Cc1c[nH]c3ncnc(c13)N2)C(C)C [Compound 140],0.158,1,3.16,1,1,1.58,1.58
O=C1CCCCOc2cccc(c2)Nc2ncnc3[nH]cc(c23)CN2CCN1CC2 [Compound 86],> 10,> 10,> 10,> 10,> 10,> 10,> 10
CN1CCCN(C)C(=O)COc2cc(ccc2Br)Nc2ncnc3[nH]cc(c23)C1 [Compound 139],0.0631,0.501,0.794,1,0.631,1,1.58
CN1CCN(C)C(=O)CCCCOc2cc(ccc2Cl)Nc2ncnc3[nH]cc(c23)C1 [Compound 49],3.16,> 10,> 10,> 10,> 10,> 10,> 10
CN1CCCN(C)C(=O)COc2cc(ccc2NC(=O)Nc2ccc(Cl)cc2)Nc2ncnc3[nH]cc(c23)C1 [Compound 116],0.0316,0.2,0.631,3.98,0.0794,6.31,5.01
COCCN(CCOc1ccc2cc1OCC(=O)N(C)CCCN(C)Cc1c[nH]c3ncnc(c13)N2)Cc1ccccc1 [Compound 141],0.0398,0.398,1.26,2.51,0.2,3.16,3.98
CN1CCN(C)C(=O)CCCOc2cc(ccc2Cl)Nc2ncnc3[nH]cc(c23)C1 [Compound 42],0.794,> 10,> 10,> 10,> 10,> 10,> 10
COCCOc1ccc2cc1OCC(=O)N(C)CCCNCc1c[nH]c3ncnc(c13)N2 [Compound 138],0.0251,1,5.01,> 10,0.631,> 10,> 10
COc1ccc2cc1CN(C)CCC(=O)N(C)CCCc1c[nH]c3ncnc(c13)N2 [Compound 4],> 10,> 10,> 10,> 10,> 10,> 10,> 10
COc1ccc2cc1OCC(=O)N[C@@H](C)CN(C)CCCc1c[nH]c3ncnc(c13)N2 [Compound 28],> 10,> 10,> 10,> 10,> 10,> 10,> 10
CN1CCCN(C)C(=O)COc2cc(ccc2N2CCCC2)Nc2ncnc3[nH]cc(c23)C1 [Compound 82],0.0794,1.26,2,1.58,2,3.16,7.94
COc1ccc(NC(=O)COc2ccc3cc2OCC(=O)N(C)CCCN(C)Cc2c[nH]c4ncnc(c24)N3)cc1 [Compound 129],0.0501,0.0794,0.2,0.794,0.0631,1,1.26
CN1CCN(C)C(=O)COc2cccc(c2)Nc2ncnc3[nH]cc(c23)C1 [Compound 58],0.0501,2.51,5.01,6.31,3.16,7.94,10
COc1ccc2cc1CN(C)CCCC(=O)N(C)CCCc1c[nH]c3ncnc(c13)N2 [Compound 5],> 10,> 10,> 10,> 10,> 10,> 10,> 10
CCOc1ccc2cc1OCC(=O)N(C)CCCN(C)Cc1c[nH]c3ncnc(c13)N2 [Compound 63],0.0794,0.631,2,2,0.501,2.51,3.16
COc1cc(NC(=O)COc2ccc3cc2OCC(=O)N(C)CCCN(C)Cc2cn(C)c4ncnc(c24)N3)cc(OC)c1OC [Compound 145],5.01,> 10,> 10,> 10,> 10,> 10,> 10
CN1CCN(C)C(=O)COc2cc(ccc2Cl)Nc2ncnc3[nH]cc(c23)C1 [Compound 98],0.1,5.01,> 10,6.31,> 10,> 10,> 10
O=C1CCCOc2cccc(c2)Nc2ncnc3[nH]cc(c23)CN2CCN1CC2 [Compound 107],6.31,> 10,> 10,> 10,> 10,> 10,> 10
CN1CCCN(C)C(=O)COc2cc(ccc2NC(=O)NC2CCCCC2)Nc2ncnc3[nH]cc(c23)C1 [Compound 13],0.0251,2,3.98,3.98,1,> 10,> 10
COc1ccc2cc1OCC(=O)N1CCCC(CN(C)CCCc3c[nH]c4ncnc(c34)N2)C1 (centres unmarked) [Compound 29],> 10,> 10,> 10,> 10,> 10,> 10,> 10
CN1CCCN(C)C(=O)CCc2cc(ccc2N2CCOCC2)Nc2ncnc3[nH]cc(c23)C1 [Compound 56],5.01,> 10,> 10,> 10,> 10,> 10,> 10
COc1ccc2cc1OCCCNC(=O)CN(C)Cc1c[nH]c3ncnc(c13)N2 [Compound 6],0.501,1.26,1.58,1.58,1.58,3.98,5.01
COc1ccc2cc1OCC(=O)N[C@H](CO)CN(C)CCCc1c[nH]c3ncnc(c13)N2 [Compound 3],1.58,> 10,> 10,> 10,> 10,> 10,> 10

# Source: patent US8318731B2, “Pyrrolopyrimidines” (Janssen Pharmaceutica NV, priority 2007, dated 2012)
